From US10045983B2, “Heteroaryl pyridone and aza-pyrodine compounds” (Genentech, Inc., priority 2011, dated 2018)

Assay: CD69 Whole Blood Assay (CD69 Hu Blood FACS)
Format: cell-based, human
Settings: Lymphocyte; human whole blood, anti-IgM activated B lymphocytes, FACS; IC70; Table 1; read-out: CD69 Hu Blood FACS IC70
Excerpt: A CD69 Whole Blood Assay can be conducted on Formula I compounds to determine the ability of compounds to inhibit the production of CD69 by B lymphocytes in human whole blood activated by crosslinking surface IgM with goat F(ab′)2 anti-human IgM (Example 907). CD69 is a type II C-type lectin involved in lymphocyte migration and cytokine secretion. CD69 expression represents one of the earliest available indicators of leukocyte activation and its rapid induction occurs through transcriptional activation (Vazquez et al (2009) Jour. of Immunology Published Oct. 19, 2009, doi:10.4049/jimmunol.0900839). Concentration-dependent inhibition of antigen receptor stimulation by selective Btk inhibitors induces cell surface expression of the lymphocyte activation marker CD69 (Honigberg et al (2010) Proc. Natl. Acad. Sci. 107(29):13075-13080). Thus, CD69 inhibition by selective Btk inhibitors may be correlated with therapeutic efficacy of certain B-cell disorders.
Cn1cc(-c2cncc(-n3ccn4c5c(cc4c3=O)CCCC5)c2CO)cc(Nc2ccc(N3CCN(C4COC4)CC3)cn2)c1=O [Example 126, 2-(4-(Hydroxymethyl)-5-(1-methyl-5-(5-(4-(oxetan-3-yl)piperazin-1-yl)pyridin-2-ylamino)-6-oxo-1,6-dihydropyridin-3-yl)pyridin-3-yl)-6,7,8,9-tetrahydropyrazino[1,2-a]indol-1(2H)-one] gave an IC70 of 138 nM. CN1CCn2nc(Nc3cc(-c4ccnc(N5CCn6c(cc7c6CC(C)(C)C7)C5=O)c4CO)cn(C)c3=O)cc2C1 [Example 141, 2-[3′-Hydroxymethyl-1-methyl-5-(5-methyl-4,5,6,7-tetrahydro-pyrazolo[1,5-a]pyrazin-2-ylamino)-6-oxo-1,6-dihydro-[3,4′]bipyridinyl-2′-yl]-7,7-dimethyl-3,4,7,8-tetrahydro-2H,6H-cyclopenta[4,5]pyrrolo[1,2-a]pyrazin-1-one] showed an IC70 of 26.6 nM. Molecule Cn1nc(-c2ccnc(N3CCn4c(cc5c4CCCC5)C3=O)c2CO)cc(Nc2cc3n(n2)CCOC3)c1=O [Example 132, 2-(4-(5-(6,7-Dihydro-4H-pyrazolo[5,1-c][1,4]oxazin-2-ylamino)-1-methyl-6-oxo-1,6-dihydropyridazin-3-yl)-3-(hydroxymethyl)pyridin-2-yl)-3,4,6,7,8,9-hexahydropyrazino[1,2-a]indol-1(2H)-one] has an IC70 of 263 nM. Work on C[C@@H]1CN(C2COC2)CCN1c1ccc(Nc2cc(-c3ccnc(N4CCn5c(cc6c5CC(C)(C)C6)C4=O)c3CO)cn(C)c2=O)nc1 [Example 153, 2-{3′-Hydroxymethyl-1-methyl-5-[5-((R)-2-methyl-4-oxetan-3-yl-piperazin-1-yl)-pyridin-2-ylamino]-6-oxo-1,6-dihydro-[3,4′]bipyridinyl-2′-yl}-7,7-dimethyl-3,4,7,8-tetrahydro-2H,6H-cyclopenta[4,5]pyrrolo[1,2-a]pyrazin-1-one] yielded an IC70 of 23.8 nM. Work on Cn1cc(-c2cncc(N3CCc4c(sc5c4CCCC5)C3=O)c2CO)cc(Nc2ccc(N3CCN(C4COC4)CC3)cn2)c1=O [Example 105, 4-Hydroxymethyl-3-[1-methyl-5-({5-[4-(oxetan-3-yl)piperazin-1-yl]pyridine-2-yl}amino)-6-oxo-1,6-dihydropyridin-3-yl]-5-{6-oxo-8-thia-5-azatricyclo-[7.4.0.0^2,7]trideca-1(9),2(7)-dien-5-yl}pyridine] yielded an IC70 of 65.4 nM. With Cn1cc(-c2cncc(N3CCc4c(cc5n4CCCC5)C3=O)c2CO)cc(Nc2ccc(N3CCN(C4COC4)CC3)cn2)c1=O [Example 112, 2-(4-(Hydroxymethyl)-5-(1-methyl-5-(5-(4-(oxetan-3-yl)piperazin-1-yl)pyridin-2-ylamino)-6-oxo-1,6-dihydropyridin-3-yl)pyridin-3-yl)-3,4,6,7,8,9-hexahydropyrido[3,4-b]indolizin-1(2H)-one] the IC70 was 492 nM. In the case of C[C@H]1CN(C2COC2)CCN1c1ccc(Nc2cc(-c3ccnc(N4CCn5c(cc6c5CCCC6)C4=O)c3CO)cn(C)c2=O)nc1 [Example 119, (S)-2-(3-(Hydroxymethyl)-4-(1-methyl-5-(5-(2-methyl-4-(oxetan-3-yl)piperazin-1-yl)pyridin-2-ylamino)-6-oxo-1,6-dihydropyridin-3-yl)pyridin-2-yl)-3,4,6,7,8,9-hexahydropyrazino[1,2-a]indol-1(2H)-one], the IC70 is reported as 35.6 nM. Cn1cc(-c2ccnc(N3CCn4c5c(c(F)c4C3=O)CCCC5)c2CO)cc(Nc2cc3n(n2)CCN(C2COC2)C3)c1=O [Example 166, 10-Fluoro-2-[3′-hydroxymethyl-1-methyl-5-(5-oxetan-3-yl-4,5,6,7-tetrahydro-pyrazolo[1,5-a]pyrazin-2-ylamino)-6-oxo-1,6-dihydro-[3,4′]bipyridinyl-2′-yl]-3,4,6,7,8,9-hexahydro-2H-pyrazino[1,2-a]indol-1-one] gave an IC70 of 155 nM. For Cn1cc(-c2ccnc(N3CCn4c(cc5c4CCCC5)C3=O)c2CO)cc(Nc2cnccn2)c1=O [Example 162, 2-[3′-Hydroxymethyl-1-methyl-6-oxo-5-(pyrazin-2-ylamino)-1,6-dihydro-[3,4′]bipyridinyl-2′-yl]-3,4,6,7,8,9-hexahydro-2H-pyrazino[1,2-a]indol-1-one], the IC70 was 434 nM. Cn1cc(-c2ccnc(N3CCn4c5c(c(F)c4C3=O)CCCC5)c2CO)cc(Nc2ccc(N3CCN(C4COC4)CC3)cn2)c1=O [Example 134, 10-Fluoro-2-(3-(hydroxymethyl)-4-(1-methyl-5-(5-(4-(oxetan-3-yl)piperazin-1-yl)pyridin-2-ylamino)-6-oxo-1,6-dihydropyridin-3-yl)pyridin-2-yl)-3,4,6,7,8,9-hexahydropyrazino[1,2-a]indol-1(2H)-one] gave an IC70 of 94.4 nM. For C[C@@H]1CN(c2ccc(Nc3cc(-c4ccnc(N5CCn6c7c(c(F)c6C5=O)CCCC7)c4CO)cn(C)c3=O)nc2)[C@@H](C)CN1C1COC1 [Example 156, 2-{5-[5-((2S,5R)-2,5-Dimethyl-4-oxetan-3-yl-piperazin-1-yl)-pyridin-2-ylamino]-3′-hydroxymethyl-1-methyl-6-oxo-1,6-dihydro-[3,4′]bipyridinyl-2′-yl}-10-fluoro-3,4,6,7,8,9-hexahydro-2H-pyrazino[1,2-a]indol-1-one], the IC70 was 14.5 nM. For Cn1cc(-c2ccnc(N3CCn4c(cc5c4CC(C)(C)C5)C3=O)c2CO)nc(Nc2ccn3ccnc3c2)c1=O [Example 185, 2-{3-Hydroxymethyl-4-[6-(imidazo[1,2-a]pyridin-7-ylamino)-4-methyl-5-oxo-4,5-dihydro-pyrazin-2-yl]-pyridin-2-yl}-7,7-dimethyl-3,4,7,8-tetrahydro-2H,6H-cyclopenta[4,5]pyrrolo[1,2-a]pyrazin-1-one], the IC70 was 1300 nM. In the case of Cn1cc(-c2ccnc(N3CCn4c(cc5c4CCCC5)C3=O)c2CO)cc(Nc2ccc(N3CCN(C4COC4)CC3(C)C)cn2)c1=O [Example 187, 2-(4-(5-(5-(2,2-dimethyl-4-(oxetan-3-yl)piperazin-1-yl)pyridin-2-ylamino)-1-methyl-6-oxo-1,6-dihydropyridin-3-yl)-3-(hydroxymethyl)pyridin-2-yl)-3,4,6,7,8,9-hexahydropyrazino[1,2-a]indol-1(2H)-one], the IC70 is reported as 45.1 nM. For C[C@H]1CN(C2COC2)CCN1c1ccc(Nc2cc(-c3ccnc(N4CCn5c(cc6c5CC(F)(F)CC6)C4=O)c3CO)cn(C)c2=O)nc1 [Example 140, (S)-7,7-Difluoro-2-(3-(hydroxymethyl)-4-(1-methyl-5-(5-(2-methyl-4-(oxetan-3-yl)piperazin-1-yl)pyridin-2-ylamino)-6-oxo-1,6-dihydropyridin-3-yl)pyridin-2-yl)-3,4,6,7,8,9-hexahydropyrazino[1,2-a]indol-1(2H)-one], the IC70 was 308 nM.

Same assay, conditions: Lymphocyte; human whole blood, anti-IgM activated B lymphocytes, FACS; IC70; Table 2 (unit inferred); read-out: CD69 Hu Blood FACS (IC70)
With CC(=O)N1CCn2nc(Nc3cc(-c4ccnc(N5CCn6c(cc7c6CCCC7)C5=O)c4CO)cn(C)c3=O)cc2C1 [Example 209, 2-[4-[5-[(5-acetyl-6,7-dihydro-4H-pyrazolo[1,5-a]pyrazin-2-yl)amino]-1-methyl-6-oxo-3-pyridyl]-3-(hydroxymethyl)-2-pyridyl]-3,4,6,7,8,9-hexahydropyrazino[1,2-a]indol-1-one] the IC70 was 116 nM. For Cc1cc(Nc2cc(-c3ccnc(N4CCn5c(cc6c5CC(C)(C)C6)C4=O)c3CO)cn(C)c2=O)n[nH]1 [Example 260, 3-[3-(hydroxymethyl)-4-[1-methyl-5-[(5-methyl-1H-pyrazol-3-yl)amino]-6-oxo-3-pyridyl]-2-pyridyl]-7,7-dimethyl-1,2,6,8-tetrahydrocyclopenta[3,4]pyrrolo[3,5-b]pyrazin-4-one], the IC70 was 60.6 nM. C[C@@H]1COCCN1C(=O)c1ccc(Nc2cc(-c3ccnc(N4CCn5c(cc6c5CC(C)(C)C6)C4=O)c3CO)cn(C)c2=O)nc1 [Example 249, 3-[3-(hydroxymethyl)-4-[1-methyl-5-[[5-[(3R)-3-methylmorpholine-4-carbonyl]-2-pyridyl]amino]-6-oxo-3-pyridyl]-2-pyridyl]-7,7-dimethyl-1,2,6,8-tetrahydrocyclopenta[3,4]pyrrolo[3,5-b]pyrazin-4-one] showed an IC70 of 17.7 nM. COc1ccc(Nc2cc(-c3ccnc(N4CCn5c(cc6c5CC(C)(C)C6)C4=O)c3CO)cn(C)c2=O)nc1 [Example 277, 3-[3-(hydroxymethyl)-4-[5-[(5-methoxy-2-pyridyl)amino]-1-methyl-6-oxo-3-pyridyl]-2-pyridyl]-7,7-dimethyl-1,2,6,8-tetrahydrocyclopenta[3,4]pyrrolo[3,5-b]pyrazin-4-one] gave an IC70 of 339 nM. Cc1cc(Nc2cc(-c3ccnc(N4CCc5c(c(F)c6n5CCCC6)C4=O)c3CO)cn(C)c2=O)nn1C [Example 261, 2-[4-[5-[(1,5-dimethylpyrazol-3-yl)amino]-1-methyl-6-oxo-3-pyridyl]-3-(hydroxymethyl)-2-pyridyl]-10-fluoro-3,4,6,7,8,9-hexahydropyrido[3,4-b]indolizin-1-one] showed an IC70 of 2900 nM. For CNC(=O)c1c(-c2cc(Nc3ccc(N4CCN(C5COC5)C[C@@H]4C)cn3)c(=O)n(C)c2)ccnc1N1CCn2c(cc3c2CC(C)(C)C3)C1=O [Example 211, 2-(7,7-dimethyl-4-oxo-1,2,6,8-tetrahydrocyclopenta[3,4]pyrrolo[3,5-b]pyrazin-3-yl)-N-methyl-4-[1-methyl-5-[[5-[(2S)-2-methyl-4-(oxetan-3-yl)piperazin-1-yl]-2-pyridyl]amino]-6-oxo-3-pyridyl]pyridine-3-carboxamide], the IC70 was 2100 nM. In the case of Cn1cc(-c2ccnc(N3CCn4c(cc5c4CCCC5)C3=O)c2CO)cc(Nc2ccc(N3CCN(C4COC4)CC3(C)C)cn2)c1=O [Example 190, 2-[4-[5-[[5-[2,2-dimethyl-4-(oxetan-3-yl)piperazin-1-yl]-2-pyridyl]amino]-1-methyl-6-oxo-3-pyridyl]-3-(hydroxymethyl)-2-pyridyl]-3,4,6,7,8,9-hexahydropyrazino[1,2-a]indol-1-one], the IC70 is reported as 70.4 nM.
